Measured values reported in patent US7563864B2, “Prolyl endopeptidase mediated destruction of T cell epitopes in whole gluten” (Celiac Sprue Research Foundation, priority 2004, dated 2009).

How the values were obtained:
[1] = Chymotrypsin activity assay; assay type: biochemical; details: standard chromogenic assay; pH 7.8, 25° C.
Procedure: Chymotrypsin: 750 μL 80 mM Tris-HCl, 100 mM CaCl2, pH 7.8 and 700 μL 1.07 mM BTEE (in Water/MeOH 1:1) were mixed and incubated at room temperature for 10′. 5 μL Chymotrypsin (1 mg/ml) were added and the absorption at 256 nm was recorded for 2′, every 10″. One unit hydrolyzes 1 μmol of BTEE per min at pH 7.8 and 25° C. Extinction coefficient 0.964 cm^2/μmol at 256 nm. 1 BTEE unit=29.55 USP units.

Elastase activity assay = assay type: biochemical; details: standard chromogenic assay; pH 8.0, 25° C.
Procedure: Elastase: 935 μL 0.1 M Tris (pH 8.0) and 65 μL of Succinyl-Ala3-p-Nitro anilide (4.4 mM in 0.1 M Tris, pH 8.0) were mixed and incubated at room temperature for 10′. 5 μL Elastase (0.2 mg/ml) were added and the absorption at 410 nm was recorded for 2′, every 10″. One unit hydrolyzes 1 μmol of Succinyl-Ala3-p-Nitro anilide per min at pH 8.0 and 25° C. Extinction coefficient 8.8 cm^2/μmol at 410 nm. […].

[2] = system: denatured hemoglobin substrate; test: Pepsin activity assay; assay type: biochemical; details: standard chromogenic assay; 37° C.
Procedure: Activity assays—Pepsin: 300 μL 2.5% Hemoglobin and 75 μL 0.3 M HCl were mixed and incubated for 10′ at 37° C., then added to 75 μL pepsin solution (0.1 mg/ml in 0.01 M HCl, pH=2.0). The samples were incubated for 0′, 10′ and 20′ at 37° C. (3 samples), and the reaction was stopped by addition of 750 μL 5% Trichloroacetic acid (TCA), and incubated 5′ at 37° C. For the 0′ samples, the TCA was added before the hemoglobin. Samples were centrifuged for 10′ at 13400×g. The absorption was recorded at 280 nm. One unit renders TCA soluble absorption of 0.001 at 280 nm per min at 37° C. from a denatured hemoglobin substrate.

[3] = system: intestinal T cell line 421.1.4; test: T cell proliferation assay, polyclonal T cell line 421.1.4; assay type: cell-based, human; design: key: −: no response; Stimulatory index (SI; T + APC + TG2-treated peptide divided by T + APC) of 3-10; ++: SI above 10; details: DQ2+ APC, 5 μM TG2-treated peptide, 3H thymidine incorporation
Description: (§1) T cell assays—The generation of polyclonal gluten-specific T cell lines derived from ex vivo gluten challenged small intestinal biopsy specimens of adult Celiac Sprue patients have been described elsewhere. For this study 14 different intestinal T cell lines derived from 13 DQ2+celiac patients were selected based on two basic criteria; effective recognition of TG2-treated digests of gluten and significant responses to at least two different gluten epitopes (Table 2). The generation of intestinal T cell clones and the epitope specificity of these clones, except TCC 387.3, has been described elsewhere (10). The TCC 387.3 recognizes a TG2-dependent epitope, defined as γ-VI that is contained within residues 62-72 (PQQPFPQQPQQ) of recombinant γ-5 gliadin. The freeze-dried, proteolyzed gluten samples were dissolved in PBS with 2 mM CaCl2 and treated with 150 μg/ml human recombinant TG2 (14) or, in some experiments 200 μg/ml guinea pig transglutaminase (Sigma T-5398), for 2 hours at 37° C. The TG2-treated samples were incubated overnight in triplicates on U-bottomed 96 well plates with 75 000 cells per well of DQ2 homozygous, irradiated (75 Gy) EBV-transformed B-lymphoblastoid cell lines in a volume of 100 μl 15% pooled, inactivated human serum and RPMI1640. After the incubation 50 μl of freshly thawed T cells (1×10^6 cells/ml) were added to each well. The proliferation in the wells was evaluated by ^3H thymidine incorporation from 48-72 hours after the addition of the T cells.

[4] = system: intestinal T cell line 422.4.2; test: T cell proliferation assay, polyclonal T cell line 422.4.2; assay type: cell-based, human; design: key: −: no response; Stimulatory index (SI; T + APC + TG2-treated peptide divided by T + APC) of 3-10; ++: SI above 10; details: DQ2+ APC, 5 μM TG2-treated peptide, 3H thymidine incorporation
Description: as §1

[5] = system: intestinal T cell line 432.2.1; test: T cell proliferation assay, polyclonal T cell line 432.2.1; assay type: cell-based, human; design: key: −: no response; Stimulatory index (SI; T + APC + TG2-treated peptide divided by T + APC) of 3-10; ++: SI above 10; details: DQ2+ APC, 5 μM TG2-treated peptide, 3H thymidine incorporation
Description: as §1

[6] = system: intestinal T cell line 437.1.1; test: T cell proliferation assay, polyclonal T cell line 437.1.1; assay type: cell-based, human; design: key: −: no response; Stimulatory index (SI; T + APC + TG2-treated peptide divided by T + APC) of 3-10; ++: SI above 10; details: DQ2+ APC, 5 μM TG2-treated peptide, 3H thymidine incorporation
Description: as §1

[7] = system: intestinal T cell line 437.1.3; test: T cell proliferation assay, polyclonal T cell line 437.1.3; assay type: cell-based, human; design: key: −: no response; Stimulatory index (SI; T + APC + TG2-treated peptide divided by T + APC) of 3-10; ++: SI above 10; details: DQ2+ APC, 5 μM TG2-treated peptide, 3H thymidine incorporation
Description: as §1

[8] = system: intestinal T cell line 446.1.3; test: T cell proliferation assay, polyclonal T cell line 446.1.3; assay type: cell-based, human; design: key: −: no response; Stimulatory index (SI; T + APC + TG2-treated peptide divided by T + APC) of 3-10; ++: SI above 10; details: DQ2+ APC, 5 μM TG2-treated peptide, 3H thymidine incorporation
Description: as §1

[9] = system: intestinal T cell line 451.1.1; test: T cell proliferation assay, polyclonal T cell line 451.1.1; assay type: cell-based, human; design: key: −: no response; Stimulatory index (SI; T + APC + TG2-treated peptide divided by T + APC) of 3-10; ++: SI above 10; details: DQ2+ APC, 5 μM TG2-treated peptide, 3H thymidine incorporation
Description: as §1

[10] = system: intestinal T cell line 461.1.4; test: T cell proliferation assay, polyclonal T cell line 461.1.4; assay type: cell-based, human; design: key: −: no response; Stimulatory index (SI; T + APC + TG2-treated peptide divided by T + APC) of 3-10; ++: SI above 10; details: DQ2+ APC, 5 μM TG2-treated peptide, 3H thymidine incorporation
Description: as §1

[11] = system: intestinal T cell line 482.1.4; test: T cell proliferation assay, polyclonal T cell line 482.1.4; assay type: cell-based, human; design: key: −: no response; Stimulatory index (SI; T + APC + TG2-treated peptide divided by T + APC) of 3-10; ++: SI above 10; details: DQ2+ APC, 5 μM TG2-treated peptide, 3H thymidine incorporation
Description: as §1

[12] = system: intestinal T cell line 488.3.1; test: T cell proliferation assay, polyclonal T cell line 488.3.1; assay type: cell-based, human; design: key: −: no response; Stimulatory index (SI; T + APC + TG2-treated peptide divided by T + APC) of 3-10; ++: SI above 10; details: DQ2+ APC, 5 μM TG2-treated peptide, 3H thymidine incorporation
Description: as §1

[13] = system: intestinal T cell line 491.1.3; test: T cell proliferation assay, polyclonal T cell line 491.1.3; assay type: cell-based, human; details: DQ2+ APC, 5 μM TG2-treated peptide, 3H thymidine incorporation
Description: as §1

[14] = system: intestinal T cell line 494.1.1; test: T cell proliferation assay, polyclonal T cell line 494.1.1; assay type: cell-based, human; design: key: −: no response; Stimulatory index (SI; T + APC + TG2-treated peptide divided by T + APC) of 3-10; ++: SI above 10; details: DQ2+ APC, 5 μM TG2-treated peptide, 3H thymidine incorporation
Description: as §1

[15] = system: intestinal T cell line 496.1.2; test: T cell proliferation assay, polyclonal T cell line 496.1.2; assay type: cell-based, human; design: key: −: no response; Stimulatory index (SI; T + APC + TG2-treated peptide divided by T + APC) of 3-10; ++: SI above 10; details: DQ2+ APC, 5 μM TG2-treated peptide, 3H thymidine incorporation
Description: as §1

[16] = system: intestinal T cell line 502.1.2; test: T cell proliferation assay, polyclonal T cell line 502.1.2; assay type: cell-based, human; design: key: −: no response; Stimulatory index (SI; T + APC + TG2-treated peptide divided by T + APC) of 3-10; ++: SI above 10; details: DQ2+ APC, 5 μM TG2-treated peptide, 3H thymidine incorporation
Description: as §1

Trypsin activity assay = assay type: biochemical; details: standard chromogenic assay; pH 8.2, 25° C.
Procedure: Trypsin: 870 μL 46 mM Tris-HCl, 11.5 mM CaCl2, pH 8.1 and 100 μL 10 mM N-α-p-Tosyl-L-Arginine methyl ester (TAME) were mixed and incubated at room temperature for 10′. 5 μL Trypsin (1 mg/ml) were added and the absorption at 247 nm was recorded for 2′, every 10″. Unit definition: One unit hydrolyzes 1 μmol of TAME per min at pH 8.2 and 25° C. Extinction coefficient 0.18 cm^2/μmol at 247 nm. 1 TAME unit=19.2 USP units.

Row | Substance | Response to TG2-treated gluten peptides (stimulatory index) [3] | Response to TG2-treated gluten peptides (stimulatory index) [4] | Response to TG2-treated gluten peptides (stimulatory index) [5] | Response to TG2-treated gluten peptides (stimulatory index) [6] | Response to TG2-treated gluten peptides (stimulatory index) [7] | Response to TG2-treated gluten peptides (stimulatory index) [8] | Response to TG2-treated gluten peptides (stimulatory index) [9] | Response to TG2-treated gluten peptides (stimulatory index) [10] | Response to TG2-treated gluten peptides (stimulatory index) [11] | Response to TG2-treated gluten peptides (stimulatory index) [12] | Response to TG2-treated gluten peptides (stimulatory index) [13] | Response to TG2-treated gluten peptides (stimulatory index) [14] | Response to TG2-treated gluten peptides (stimulatory index) [15] | Response to TG2-treated gluten peptides (stimulatory index) [16] | also measured
1 | Chymotrypsin |  |  |  |  |  |  |  |  |  |  |  |  |  |  | specific activity [1]: 800 USP/mg
2 | Elastase |  |  |  |  |  |  |  |  |  |  |  |  |  |  | specific activity (Elastase activity assay): 5 U/mg
3 | Pepsin |  |  |  |  |  |  |  |  |  |  |  |  |  |  | specific activity [2]: 4000 U/mg
4 | QPQQPQQSFPQQQRP [γ-I] | − | − | + (Stimulatory index (SI; T + APC + TG2-treated peptide divided by T + APC) of 3-10) | − | + (Stimulatory index (SI; T + APC + TG2-treated peptide divided by T + APC) of 3-10) | − | − | − | − | − | + (Stimulatory index (SI; T + APC + TG2-treated peptide divided by T + APC) of 3-10) | − | − | − | 
5 | QQxSQPQxPQQQQxPQQPQQF [Glu-5] | − | − | − | − | − | + (Stimulatory index (SI; T + APC + TG2-treated peptide divided by T + APC) of 3-10) | − | − | − | − | + (Stimulatory index (SI; T + APC + TG2-treated peptide divided by T + APC) of 3-10) | − | − | − | 
6 | Trypsin |  |  |  |  |  |  |  |  |  |  |  |  |  |  | specific activity (Trypsin activity assay): 2000 USP/mg
